Among the test systems are T-47D breast; A498 renal; M14 melanoma; NCI-H23 lung; SN12C renal; NCI-H460 lung; KM12 colon; MDA-MB-435; SK-OV-3 ovarian; HOP-92 NSCLC.
What all share (test): inhibition of tumour cell growth, NCI panel, 48 h

“And” between values parts separate entries of the source, which are not always exact repeats. Identical values can stand only once.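 Exposure lasted 48 hours, with cells grown in 96-well plates and compounds tested at five concentrations. Here, GI50 denotes the concentration required for 50% inhibition of growth. TGI is the concentration that stops growth completely.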

On to `NCCCCc1cc(O)c2c(c1O)C(=O)c1ccccc1C2=O`, for which the TGI is 43.3 µM in the test with T-47D breast; 37.2 µM in the test with A498 renal; 33.6 µM with M14 melanoma; 28.4 µM with NCI-H23 lung; 23 µM in the test on SN12C renal; 26.6 µM in the test on NCI-H460 lung. Also, the TGI with KM12 colon was 24.2 µM; with MDA-MB-435, 43.6 µM; in the test with SK-OV-3 ovarian, 29.1 µM; in the test on HOP-92 NSCLC, 31.1 µM.
Take `CCn1c(-c2ccc(N=NNc3ccc(-c4n[nH]c(=S)n4CC)cc3)cc2)n[nH]c1=S`: the TGI with T-47D breast is 4.35 µM; in the test with A498 renal, more than 100 µM; in the test with M14 melanoma, 8.2 µM; in the test with NCI-H23 lung, 6.26 µM; with SN12C renal it was more than 100 µM; in the test with KM12 colon, 5.93 µM. For the same compound, the results for the TGI in the test on SK-OV-3 ovarian and in the test with HOP-92 NSCLC were 19.5 µM and 7.71 µM, respectively.
As to `O=C(O)C1C2CCC(O2)C1C(=O)Nc1cccc2cccnc12` (configuration not stated), the TGI in the test on T-47D breast, in the test on A498 renal, with M14 melanoma, in the test with NCI-H23 lung, in the test on SN12C renal and in the test on NCI-H460 lung was more than 100 µM throughout. Besides, the TGI with KM12 colon, with MDA-MB-435 and in the test on SK-OV-3 ovarian was more than 100 µM throughout.
Regarding `CC12CC3OC(=O)C1COC14OC5(C2C1=O)C(O)(CCC1C4CC(O)C2(O)CC=CC(=O)C12C)C(=O)OC35C` (configuration not stated), the TGI in the test with T-47D breast, in the test on M14 melanoma, with NCI-H23 lung, with SN12C renal, with NCI-H460 lung and in the test on KM12 colon was more than 100 µM throughout. Besides, the TGI with MDA-MB-435, in the test on SK-OV-3 ovarian and in the test on HOP-92 NSCLC was more than 100 µM each time.
Consider `O=C(/C=C/c1ccccc1)NNC(=O)c1c(Cl)c(Cl)c(Cl)c(Cl)c1-c1nc2ccccc2[nH]1`, for which the TGI in the test with T-47D breast came out at 60.6 µM; in the test on A498 renal, 90.9 µM; with M14 melanoma it was 83.5 µM; in the test on NCI-H23 lung it was 60 µM; with SN12C renal it was 63.4 µM; in the test with NCI-H460 lung, 61 µM. The TGI with MDA-MB-435 was more than 100 µM; in the test on SK-OV-3 ovarian it was 54.9 µM; with HOP-92 NSCLC it was 45.7 µM.
In the case of `Nc1nc(SCCc2ccccc2)nc2nc3c(c(-c4ccccc4)c12)CCCC3`, the TGI with T-47D breast, with M14 melanoma, with NCI-H23 lung, in the test with SN12C renal, with NCI-H460 lung and in the test on KM12 colon was more than 100 µM each time. Also, the TGI in the test with MDA-MB-435 and in the test on SK-OV-3 ovarian was more than 100 µM each time.
For `CC(=O)C1=C(C)N(c2ccc(C)cc2)C2(O)C=CC(=O)C3C(=O)N(c4ccccc4)C(=O)C132` (configuration not stated), the TGI with T-47D breast was 54.6 µM; with A498 renal it was 39.6 µM; with M14 melanoma, more than 100 µM; in the test with NCI-H23 lung, 46.1 µM; in the test on SN12C renal, 34.2 µM; in the test on NCI-H460 lung, more than 100 µM. For the same compound, the TGI was 74.2 µM in the test with KM12 colon, more than 100 µM with MDA-MB-435 and 43.1 µM in the test on HOP-92 NSCLC.
With `NCCSC(c1ccccc1)c1ccccc1`, the TGI in the test with A498 renal is 62.5 µM; in the test on M14 melanoma, 29.9 µM; in the test with NCI-H23 lung, more than 100 µM; in the test on SN12C renal, more than 100 µM; in the test on NCI-H460 lung it was 29.3 µM; with KM12 colon, 35.6 µM. Besides, the values for the TGI in the test with MDA-MB-435, with SK-OV-3 ovarian and with HOP-92 NSCLC were 33.8 µM, 70.8 µM and 37.2 µM, respectively.
For `COc1nc(C#CC2(O)CCCCC2)nc(OC)n1`, the TGI is more than 100 µM in the test with T-47D breast; 31.2 µM with A498 renal; 38.3 µM in the test on M14 melanoma; 27.1 µM in the test with NCI-H23 lung; 26.6 µM in the test with SN12C renal; 78.6 µM in the test on NCI-H460 lung. Moreover, the TGI in the test on KM12 colon is 30.2 µM; with MDA-MB-435 it was 18.8 µM; with SK-OV-3 ovarian, more than 100 µM.
With `CCCCCCCCC/C=C/C=C/C(=O)NCC(=O)NC1C(O)C(O)C(Nc2ncnc3nc[nH]c23)OC1C(O)CO` (configuration not stated), the GI50 with M14 melanoma is 0.0248 µM; in the test with NCI-H23 lung, 0.0247 µM; in the test with NCI-H460 lung, 0.00278 µM; in the test on KM12 colon, 0.0013 µM. The TGI was 0.143 µM and 1.22 µM in the test on M14 melanoma; 0.913 µM in the test with SN12C renal; 1.23 µM and 0.321 µM in the test on NCI-H460 lung; 0.608 µM in the test with KM12 colon; 0.256 µM with MDA-MB-435; 0.00892 µM in the test on SK-OV-3 ovarian.
Regarding `CN(C)CC(CC1=C(CC(CN(C)C)N(C)C)CCC1)N(C)C` (configuration not stated), the TGI in the test on A498 renal, in the test on NCI-H23 lung, with SN12C renal, with NCI-H460 lung, in the test with KM12 colon and in the test with SK-OV-3 ovarian was more than 100 µM each time. The TGI in the test with HOP-92 NSCLC was more than 100 µM.
`NC(=O)c1c(NC(=O)c2ccccn2)sc2c1CCC(=O)C2`: the GI50 is 2.48 µM with T-47D breast; more than 100 µM in the test on A498 renal; 3.88 µM with M14 melanoma; more than 100 µM with NCI-H460 lung; 3.26 µM in the test with KM12 colon; 3.22 µM in the test with MDA-MB-435. For the same compound, the GI50 is more than 100 µM in the test with SK-OV-3 ovarian and 2.75 µM with HOP-92 NSCLC. Also, the TGI in the test on T-47D breast, in the test with A498 renal, with M14 melanoma, in the test with NCI-H460 lung, in the test with KM12 colon and with MDA-MB-435 was more than 100 µM each time. For the same compound, the TGI in the test with SK-OV-3 ovarian and with HOP-92 NSCLC was more than 100 µM throughout.
As to `CCN(CC(=O)O)C(=O)c1cccnc1`, the TGI with T-47D breast, in the test on A498 renal, with M14 melanoma, with NCI-H23 lung, with SN12C renal and in the test with NCI-H460 lung was more than 100 µM each time. The TGI in the test with KM12 colon, with MDA-MB-435 and in the test with HOP-92 NSCLC was more than 100 µM throughout.

(Values after PubChem BioAssay (NCI).)
